Laboratory results reported in patent publication US20150038545A1, “HYDROXYPHENYL PYRROLE COMPOUNDS CONTAINING AN HYDROXAMIC ACID AS HDAC INHIBITORS AND MEDICINAL APPLICATIONS THEREOF” (UNIVERSIDAD DEL PAÍS VASCO, priority 2011, published 2015).

Assays:
[1] = target: T1, Human HDAC8 (Homo sapiens, UniProt Q9BY41); assay: In vitro HDAC8 inhibition, fluorogenic peptide assay; format: biochemical; details: for IC50: read-out: IC50 (nM) of enzyme activity HDAC8
T1 construct: Full length, MW=42 kDa, expressed in an E. coli expression system; purchased BioMol SE-145; host or cells: E. coli
T1 sequence (Q9BY41 1-377): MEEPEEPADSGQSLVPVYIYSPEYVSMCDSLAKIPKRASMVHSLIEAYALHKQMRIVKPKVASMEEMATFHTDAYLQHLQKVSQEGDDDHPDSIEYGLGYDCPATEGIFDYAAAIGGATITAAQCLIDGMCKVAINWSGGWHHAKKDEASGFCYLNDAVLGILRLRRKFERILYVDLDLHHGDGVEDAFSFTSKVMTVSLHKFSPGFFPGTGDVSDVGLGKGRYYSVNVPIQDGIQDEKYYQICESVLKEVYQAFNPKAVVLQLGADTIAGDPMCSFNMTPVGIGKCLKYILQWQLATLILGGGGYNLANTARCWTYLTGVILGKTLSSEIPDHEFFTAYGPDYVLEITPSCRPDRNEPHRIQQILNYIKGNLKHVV
Procedure: (§1) All HDAC assays were performed using acetylated AMC-labeled peptide substrate: • Substrate for isoforms HDAC1, 2, 3, 4, 5, 6, 7, 9, 10, 11 and HeLa nuclear extract assays: Acetylated fluorogenic peptide from p53 residues 379-382 (RHKKAc) (BioMol. Cat. # KI-104). • Substrate for HDAC8 assays: Acetylated fluorogenic peptide from p53 residues 379-382 (RHKAcKAc) (BioMol. Cat. # KI-178).
(§2) Enzymes: • HDAC1 assay: 75 nM Human HDAC1 (GenBank Accession No. NM_004964): Full length with C-terminal GST tag, MW=79.9 kDa, expressed by baculovirus expression system in Sf9 cells (BioMol. Cat. # SE-456). • HDAC2 assay: 5 nM Human HDAC2 (GenBank Accession No. Q92769): Full length with C-terminal His tag, MW=60 kDa, expressed by baculovirus expression system in Sf9 cells (BioMol. Cat. # SE-500). • HDAC3 assay: 2.3 nM Human HDAC3/NcoR2 (GenBank Accession No. NM_003883 for HDAC3, GenBank Accession No.NM_006312 for NcoR2): Complex of human HDAC3, full length with C-terminal His tag, MW=49.7 kDa, and human NCOR2, N-terminal GST tag, MW=39 kDa, co-expressed in baculovirus expression system (BioMol. Cat. # SE-507). • HDAC4 assay: 266 nM Human HDAC4 (GenBank Accession No. NM_006037): Amino acids 627-1085 with N-terminal GST tag, MW=75.2 kDa, expressed in baculovirus expression system (BioMol, Hamburg, Germany). • HDAC5 assay: 588 nM Human HDAC5 (GenBank Accession No. NM_001015053): Full length with Nterminal GST tag, MW=150 kDa, expressed by baculovirus expression system in Sf9 cells (BioMol, Hamburg, Germany). • HDAC6 assay: 13 nM Human HDAC6 (GenBank Accession No. BC069243): Full length with N-terminal GST tag, MW=159 kDa, expressed by baculovirus expression system in Sf9 cells (BioMol. Cat. # SE-508). • HDAC7 assay: 962 nM Human HDAC7 (GenBank Accession No. AY302468): Amino acids 518-end with N-terminal GST tag, MW=78 kDa, expressed in baculovirus expression system (BioMol, Hamburg, Germany). • HDAC8 assay: 119 nM Human HDAC8 (GenBank Accession No. NM018486): Full length, MW=42 kDa, expressed in an E. coli expression system (BioMol. Cat. # SE-145). • HDAC9 assay: 986 nM Human HDAC9 (GenBank Accession No. NM178423): Amino acids 604-1066 with C-terminal His tag, MW=50.7 kDa, expressed in baculovirus expression system (BioMol, Hamburg, Germany). • HDAC10 assay: 781 nM Human HDAC10 (GenBank Accession No. NM_032019): Amino acids 1-631 with Nterminal GST tag, MW=96 kDa, expressed by baculovirus expression system in Sf9 cells (BioMol. Cat. # SE-559). • HDAC11 assay: 781 nM Human HDAC11 (GenBank Accession No. NM_BC009676) with N-terminal GST tag, MW=66 kDa, expressed in baculovirus expression system (BioMol. Cat. # SE-560). • HeLaNuclear Extract assay: 25 ng/μl Nuclear Extract from HeLa Cells: Prepared by high salt extraction of HeLa nuclei (human cervical cancer cell line), this extract is a rich source of HDAC activity (BioMol. Cat. # KI-140).
(§3) The reactions were carried out in a 96-well microplate for fluorometry in a 50 μl reaction volume. After the deacetylation reaction, Fluor-de-Lys-Developer (BioMol Cat. # KI-105) was added to each well to digest the deacetylated substrate, thus producing the fluorescent signal. The reaction was allowed to develop for 45 minutes at 30° C. with 5% CO2; then the fluorescent signal was measured with an excitation wavelength at 360 nm and an emission wavelength at 460 nm in a microplate-reading fluorometer (GeminiXS; Molecular Devices, Sunnyvale, Calif.). […] All experiments were performed in triplicate. IC50 was calculated by fitting the experimental data to a dose-response curve. DMSO was used as negative control; Trichostatin A (Biomol Cat. # GR-309) was used as positive control inhibitor.

[2] = target: T2, Human HDAC1 (Homo sapiens, UniProt Q13547); assay: In vitro HDAC1 inhibition, fluorogenic peptide assay; format: biochemical; details: for IC50: read-out: IC50 (nM) of enzyme activity HDAC1
T2 construct: Full length with C-terminal GST tag, MW=79.9 kDa; GST (C); purchased BioMol SE-456; host or cells: Sf9 cells, baculovirus
Procedure: as §1, §2, §3

[3] = tested on: T3, Nuclear Extract from HeLa Cells; assay: HeLa nuclear extract HDAC inhibition assay; format: biochemical, Human; details: HeLa cell line nuclear extract
T3 construct: 25 ng/μl Nuclear Extract from HeLa Cells: Prepared by high salt extraction of HeLa nuclei (human cervical cancer cell line)
Procedure: as §1, §2, §3

T2 sequence (Q13547 whole entry): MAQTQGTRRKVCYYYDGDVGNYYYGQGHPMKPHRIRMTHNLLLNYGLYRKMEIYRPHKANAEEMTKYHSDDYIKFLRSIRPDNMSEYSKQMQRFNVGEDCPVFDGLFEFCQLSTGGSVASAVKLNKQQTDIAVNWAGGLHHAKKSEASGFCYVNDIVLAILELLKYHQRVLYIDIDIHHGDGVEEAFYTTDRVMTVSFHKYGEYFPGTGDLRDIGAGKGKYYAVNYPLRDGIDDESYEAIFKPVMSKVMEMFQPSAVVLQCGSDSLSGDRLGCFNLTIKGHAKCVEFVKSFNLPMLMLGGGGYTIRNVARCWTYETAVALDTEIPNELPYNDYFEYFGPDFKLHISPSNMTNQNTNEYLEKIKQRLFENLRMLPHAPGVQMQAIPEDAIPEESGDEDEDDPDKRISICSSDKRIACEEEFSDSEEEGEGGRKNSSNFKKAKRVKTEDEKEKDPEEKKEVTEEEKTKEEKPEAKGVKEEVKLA

SMILES | Selectivity against HDAC6 (IC50 HDACx/IC50 HDAC6) HDAC8 [1] | IC50 [1] [nM] | Selectivity against HDAC6 (IC50 HDACx/IC50 HDAC6) HDAC1 [2] | IC50 [2] [nM] | IC50 [3] [nM]
COc1ccc(-c2cc(-c3ccccc3)c(C(=O)NCCCCCC(=O)NO)[nH]2)cc1 [Compound B, N-[6-(hydroxyamino)-6-oxohexyl]-5-(4-methoxyphenyl)-3-phenyl-1H-pyrrole-2-carboxamide, reference compound] | 5.4 | 174 | 8.6 | 276 | 27
COc1ccc(-c2cc(-c3ccccc3)[nH]c2C(=O)NCCCCCC(=O)NO)cc1 [Compound A, N-[6-(hydroxyamino)-6-oxohexyl]-3-(4-methoxyphenyl)-5-phenyl-1H-pyrrole-2-carboxamide, reference compound] | 9.6 | 192 | 23.2 | 464 | 61
O=C(CCCCCNC(=O)c1[nH]c(-c2ccc(O)cc2)cc1-c1ccsc1)NO [Example 6, N-(5-(hydroxycarbamoyl)pentyl)-5-(4-hydroxyphenyl)-3-(3-thienyl)-1H-pyrrole-2-carboxamide] | – | 104 | – | 49 | 7.3
O=C(CCCCCNC(=O)c1[nH]c(-c2ccccc2)cc1-c1ccc(O)cc1)NO [Example 1, N-(6-(hydroxyamino)-6-oxohexyl)-3-(4-hydroxyphenyl)-5-phenyl-1H-pyrrole-2-carboxamide] | 54.8 | 767 | 25.3 | 354 | 31
O=C(CCCCCNC(=O)c1[nH]c(-c2ccc(O)cc2)cc1-c1ccccc1)NO [Example 2, N-(6-(hydroxyamino)-6-oxohexyl)-5-(4-hydroxyphenyl)-3-phenyl-1H-pyrrole-2-carboxamide] | 21.3 | 162 | 20.1 | 153 | 18
O=C(CCCCCNC(=O)c1[nH]c(-c2ccsc2)cc1-c1ccc(O)cc1)NO [Example 3, N-(5-(hydroxycarbamoyl)pentyl)-3-(4-hydroxyphenyl)-5-(3-thienyl)-1H-pyrrole-2-carboxamide] | – | 975 | – | 438 | 46
O=C(CCCCCNC(=O)c1[nH]c(-c2ccc(O)cc2)cc1-c1ccoc1)NO [Example 5, 3-(3-furyl)-N-(5-(hydroxycarbamoyl)pentyl)-5-(4-hydroxy-phenyl)-1H-pyrrole-2-carboxamide] | – | 278 | – | 19 | 1.6
O=C(CCCCCNC(=O)c1[nH]c(-c2ccoc2)cc1-c1ccc(O)cc1)NO [Example 4, 5-(3-furyl)-N-(5-(Hydroxycarbamoyl)pentyl)-3-(4-hydroxy-phenyl)-1H-pyrrole-2-carboxamide] | – | 591 | – | 353 | 33
